Test results: patent US20020025918A1, “Methods of using helical peptides in plants” (priority 1987, published 2002)
Converted amounts (≈) assume the structure as drawn. Read-outs that look alike come from different tables or passages of the source. Residues, ends and D or L forms follow the SMILES beside them.

How the values were obtained:
B-16 myeloma cells = test: B-16 cell viability, trypan blue exclusion; assay type: cell-based; details: for % Cell Viability: 100 μM peptide, one hour
Procedure: (§1) B-16 myeloma cells and normal 3T3 […] fibroblasts were either permitted to attach to the test plate, or treated with trypsin to free the cells from the plastic dish prior to treatment. Cells were then treated with 100 μM lytic peptide for one hour as described above, and cell viability was then determined by trypan blue exclusion.

[1] = Role of cytoskeletal structure in susceptibility to lysis, FDD cell viability; details: donkey, primary fetal donkey dermal cells (FDD), % Viability of Treated DD Cells, 100 μM peptide 15 minutes
S. auerus = test: Synergy of lytic peptide with antibiotics
P. aeruginosa = test: MBC and MIC susceptibility test; assay type: cell-based
E. coli [2] = test: Synergy of lytic peptide with antibiotics
EL-4 lymphoma cells = test: EL-4 cell killing, trypan blue exclusion; details: one hour, 37° C.
[3] = test system: Human mononuclear leukocytes; test: 3H-thymidine uptake in WBC (proliferation); assay type: cell-based
Procedure: Human mononuclear leukocytes were isolated from whole blood in the following manner. Blood was collected in vacutainer tubes containing EDTA, and was then diluted with an equal valume of calcium and magnesium-free PBS and layered over Histopaque resin (GIBCO). The tubes were centrifuged for 30 minutes at 25° C. and 450× g. The plasma and platelets above the banded layer of cells in the resulting gradient were removed and discarded. The banded white blood cells were removed to fresh test tubes, washed 3 times with PBS, and resuspended in RPMI medium containing 10% fetal bovine serum (FBS), mercaptoethanol, and penicillin and streptomycin as antibiotics. The cells were then counted and resuspended to a final concentration of 3×10^6 cells/ml.
To each well of a 96 well flat-bottomed microtiter plate was aded 100 μl of cells (3×10^5 cells). Treatment groups were set in quadruplicate samples. The appropriate concentration of test peptide and/or the mitogen hytohemaglutinate (PHA), was added in a total volume of 100 μl of medium to the test wells. The plates were then incubated at 37° C. and 5% CO2 for a duration of 72 hours. At the end of the incubation period, 1 μCi of 3H-thymidine in 1 μl TRIS-HCI, PH8 was added to each well, and the plates incubated an additional 18 hours.
Cellular DNA was harvested onto glass fiber filters using a semi-automatic cell harvester. The glass filters were then placed into vials containing scintillation fluid, and the samples were counted in a scintillation counter. The uptake of 3H-thymidine is an indiator of cell proliferation, thus the higher the number of counts in the sample, the greater the proliferative activity of the cells. The results in Table XI indicate that low dose of the synthetic peptides of this invention stimulate cell growth.

[4] = 3T3 fibroblast viability, trypan blue exclusion; assay type: cell-based; details: human, 100 μM peptide, one hour, read-out: % Cell Viability
Procedure: as §1

E. coli [5] = test: MBC and MIC susceptibility test; assay type: cell-based
S. aureus = test: MBC and MIC susceptibility test; assay type: cell-based
lymphocytes = assay type: cell-based, human
[6] = Lytic activity (general statement)
[7] = Manitou-1 0.01 μM + Streptomycin 0.5 μM
[8] = Manitou-1 0.01 μM + Streptomycin 5.0 μM
[9] = Manitou-1 0.01 μM + Tetracycline 0.5 μM
[10] = Manitou-1 0.01 μM + Tetracycline 5.0 μM
[11] = Manitou-1 0.01 μM, no antibiotic
[12] = Manitou-1 0.10 μM + Streptomycin 0.5 μM
[13] = Manitou-1 0.10 μM + Streptomycin 5.0 μM
[14] = Manitou-1 0.10 μM + Tetracycline 0.5 μM
[15] = Manitou-1 0.10 μM + Tetracycline 5.0 μM
[16] = Manitou-1 0.10 μM, no antibiotic
[17] = Manitou-1 1.0 μM + Streptomycin 0.5 μM
[18] = Manitou-1 1.0 μM + Streptomycin 5.0 μM
[19] = Manitou-1 1.0 μM + Tetracycline 0.5 μM
[20] = Manitou-1 1.0 μM + Tetracycline 5.0 μM
[21] = Manitou-1 1.0 μM, no antibiotic

CSCC[C@H](NC(=O)[C@H](CCCNC(=N)N)NC(=O)[C@H](CCCCN)NC(=O)[C@@H](N)CCSC)C(=O)N[C@H](C(=O)N[C@@H](CO)C(=O)N[C@@H](Cc1c[nH]c2ccccc12)C(=O)N[C@@H](CO)C(=O)N[C@@H](Cc1ccccc1)C(=O)N[C@@H](CCCCN)C(=O)N[C@@H](CCCCN)C(=O)N[C@@H](CC(C)C)C(=O)N[C@@H](CCCCN)C(=O)N[C@H](C(=O)N[C@@H](CCSC)C(=O)N[C@@H](CCCCN)C(=O)N[C@@H](CCCCN)C(=O)N[C@@H](CC(C)C)C(=O)N[C@@H](CC(C)C)C(=O)N[C@@H](CC(C)C)C(=O)N[C@@H](CC(C)C)C(=O)N[C@@H](CC(C)C)C(=O)N[C@@H](CC(C)C)C(=O)N[C@@H](CS)C(=O)N[C@H](C(=O)N[C@@H](Cc1ccccc1)C(=O)N[C@@H](CC(C)C)C(=O)N[C@H](C(=O)N[C@@H](CCCCN)C(=O)N[C@@H](CO)C(N)=O)C(C)C)C(C)C)[C@@H](C)O)C(C)C [Manitou-1] (H-MKRMVSWSFKKLKTMKKLLLLLLCVFLVKS-NH2)
% Cell Viability (B-16 myeloma cells; B-16 Monolayer): 19%
% Cell Viability (B-16 myeloma cells; B-16 Suspension (trypsinized)): 0%
selective killing of cancer cells in monolayer culture (in words) (B-16 myeloma cells; B-16 versus 3T3 attached in monolayer): more effective than LSB-37 in selectively killing cancer cells
viability at 15 minutes, 100 μM ([1]; Cold-treated (4° C.)): 8%
viability at 15 minutes, 100 μM ([1]; Warm-treated (37° C.)): 78%
viability at 15 minutes, 100 μM ([1]; with colchicine 0.1 μg/ml (cytoskeletal inhibitor), Colchicine-treated (0.1 μg/ml)): 30%
viability at 15 minutes, 100 μM ([1]; with cytochalasin D 5 μg/ml (cytoskeletal inhibitor), Cytochalasin D-treated (5 μg/ml)): 23%
% Cell Death In S. auerus (S. auerus; [7]): 0%
% Cell Death In S. auerus (S. auerus; [8]): 87%
% Cell Death In S. auerus (S. auerus; [9]): 0%
% Cell Death In S. auerus (S. auerus; [10]): 35%
% Cell Death In S. auerus (S. auerus; [11]): 0%
% Cell Death In S. auerus (S. auerus; [12]): 0%
% Cell Death In S. auerus (S. auerus; [13]): 95%
% Cell Death In S. auerus (S. auerus; [14]): 0%
% Cell Death In S. auerus (S. auerus; [15]): 35%
% Cell Death In S. auerus (S. auerus; [16]): 0%
% Cell Death In S. auerus (S. auerus; [17]): 0%
% Cell Death In S. auerus (S. auerus; [18]): 86%
% Cell Death In S. auerus (S. auerus; [19]): 0%
% Cell Death In S. auerus (S. auerus; [20]): 35%
% Cell Death In S. auerus (S. auerus; [21]): 0%
MBC (P. aeruginosa; Table III, P. aeuriginosa (−)): 16 µM (≈ 57.8 µg/mL)
% Cell Death In E. coli (E. coli [2]; [7]): 99.9%
% Cell Death In E. coli (E. coli [2]; [8]): 58%
% Cell Death In E. coli (E. coli [2]; [9]): 68%
% Cell Death In E. coli (E. coli [2]; [10]): 88%
% Cell Death In E. coli (E. coli [2]; [11]): 0%
% Cell Death In E. coli (E. coli [2]; [12]): 68%
% Cell Death In E. coli (E. coli [2]; [13]): 99.9%
% Cell Death In E. coli (E. coli [2]; [14]): 0%
% Cell Death In E. coli (E. coli [2]; [15]): 58%
% Cell Death In E. coli (E. coli [2]; [16]): 0%
% Cell Death In E. coli (E. coli [2]; [17]): 0%
% Cell Death In E. coli (E. coli [2]; [18]): 99.9%
% Cell Death In E. coli (E. coli [2]; [19]): 0%
% Cell Death In E. coli (E. coli [2]; [20]): 47%
% Cell Death In E. coli (E. coli [2]; [21]): 0%
interaction with streptomycin in E. Coli (in words) (E. coli [2]; Manitou-1 with streptomycin): synergistic action
% EL-4 Cells Killed (EL-4 lymphoma cells; 10 μM peptide): 5%
% EL-4 Cells Killed (EL-4 lymphoma cells; 25 μM peptide): 28%
% EL-4 Cells Killed (EL-4 lymphoma cells; 50 μM peptide): 78%
% EL-4 Cells Killed (EL-4 lymphoma cells; 100 μM peptide): 100%
3H-Thymidine Uptake in WBC, % of Control ([3]; peptide 10 μM, PHA 0 mg): 239%
3H-Thymidine Uptake in WBC, % of Control ([3]; peptide 10 μM, PHA 0.5 mg): 191%
3H-Thymidine Uptake in WBC, % of Control ([3]; peptide 10 μM, PHA 5.0 mg): 125%
3H-Thymidine Uptake in WBC, % of Control ([3]; peptide 25 μM, PHA 0 mg): 325%
3H-Thymidine Uptake in WBC, % of Control ([3]; peptide 25 μM, PHA 0.5 mg): 153%
3H-Thymidine Uptake in WBC, % of Control ([3]; peptide 25 μM, PHA 5.0 mg): 143%
3H-Thymidine Uptake in WBC, % of Control ([3]; peptide 50 μM, PHA 0 mg): 62%
3H-Thymidine Uptake in WBC, % of Control ([3]; peptide 50 μM, PHA 0.5 mg): 61%
3H-Thymidine Uptake in WBC, % of Control ([3]; peptide 50 μM, PHA 5.0 mg): 63%
3H-Thymidine Uptake in WBC, % of Control ([3]; peptide 100 μM, PHA 0 mg): 39%
3H-Thymidine Uptake in WBC, % of Control ([3]; peptide 100 μM, PHA 0.5 mg): 8%
3H-Thymidine Uptake in WBC, % of Control ([3]; peptide 100 μM, PHA 5.0 mg): 0%
viability at 1 h, 100 μM ([4]; normal 3T3 human fibroblasts, 3T3 Suspension (trypsinized)): 5%
viability at 1 h, 100 μM ([4]; 3T3 Monolayer): 85%
MBC (E. coli [5]; Table III): 8 µM (≈ 28.9 µg/mL)
MBC (S. aureus; Table III, S. aureus (+)): 32 µM (≈ 116 µg/mL)

CC[C@H](C)[C@H](NC(=O)[C@H](CC(N)=O)NC(=O)[C@H](CCCNC(=N)N)NC(=O)CNC(=O)[C@H](CCSC)NC(=O)[C@H](CCCCN)NC(=O)[C@H](CCC(=O)O)NC(=O)[C@@H](NC(=O)[C@H](CCCCN)NC(=O)[C@H](CC(C)C)NC(=O)[C@H](Cc1ccccc1)NC(=O)[C@@H](NC(=O)[C@H](CCCCN)NC(=O)[C@H](CCC(=O)O)NC(=O)[C@H](CCCCN)NC(=O)[C@@H]1CCCN1C(=O)[C@@H](N)CCSC)C(C)C)[C@@H](C)CC)C(=O)N[C@@H](CCCNC(=N)N)C(=O)N[C@@H](CC(N)=O)C(N)=O [Vishnu-3] (H-MPKEKVFLKIEKMGRNIRN-NH2)
stimulation of cell proliferation (in words) (lymphocytes): potent stimulator of cell proliferation
antibacterial result of treatment (Table I; MBC) (P. aeruginosa; P. aeruginosa (−)): >64 µM
lytic activity (in words) [6]: devoid of lytic activity
antibacterial result of treatment (Table I; MBC) (E. coli [5]): >64 µM
antibacterial result of treatment (Table I; MBC) (S. aureus; S. auerus (+)): >64 µM
